In patent US20240315994A1, “SMALL MOLECULE MODULATORS OF FERROPTOSIS” (ARPEGGIO BIOSCIENCES, INC., priority 2021, published 2024):

Columns and labels:
recombinant GPX4 protein [1] = target: T1, recombinant GPX4 protein (Homo sapiens, UniProt P36969); test: GPX4 inhibitor screening assay (Cayman Chemical cat #701880); assay type: biochemical; settings: for GPX4 inhibitory capacity in vitro: 25 μM, one hour incubation with recombinant GPX4; for EC50: stated with the FIG. 6/FIG. 7 binding and GPX4 enzymatic results, assay behind the EC50 not named, read-out: EC50 (half maximal effective concentration)
T1 construct: purchased Cayman Chemical SO960203
T1 sequence (P36969 1-197): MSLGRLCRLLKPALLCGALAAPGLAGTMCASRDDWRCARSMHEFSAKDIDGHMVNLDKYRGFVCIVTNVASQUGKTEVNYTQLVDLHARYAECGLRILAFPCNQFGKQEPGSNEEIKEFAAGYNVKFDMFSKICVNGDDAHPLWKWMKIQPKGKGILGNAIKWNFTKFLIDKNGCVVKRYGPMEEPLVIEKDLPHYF
Method: To determine whether the five ferroptosis-inducing compounds (1816, 8216, 3362, 1962, and 0973) inhibit GPX4 enzymatic activity in vitro, we used a commercially available GPX4 inhibitor screening kit (Cayman Chemical cat #701880). This assay measures a compound's ability to prevent cumene hydroperoxide reduction by recombinant GPX4 protein. Briefly, the five ferroptosis-inducing compounds (25 μM) were incubated with recombinant GPX4 protein for one hour before being run in the Cayman Chemicals GPX4 inhibitor screening assay according to manufacturer's recommendations. The assay read out is a change in absorbance between NADPH and NADP. ML162 (25 μM) and RSL3 (25 μM) were used as positive control compounds.
An enzymatic assay that measures the reduction of […] by GPX4 was used to test the ability of compounds 8216, 6666, 8147, and 3793 to inhibit the activity of GPX4. The enzymatic assay was performed using a commercially available kit (Cayman cat #701880). The compounds were tested at 8 concentrations in duplicate with the compound being diluted following manufacturer's instructions. The enzymatic reaction was allowed to continue for 1 hour prior to reading out the kinetic shift in absorbance that occurs as result of GPX4 […].

recombinant GPX4 protein [2] = target: T1, recombinant GPX4 protein; test: Intact protein mass spectrometry binding to recombinant GPX4; settings: for binding to recombinant GPX4 in vitro / number of binding events / sites on GPX4 (mass shifts): intact protein mass spectrometry, 2 hours incubation
Text: To determine whether the five ferroptosis-inducing compounds identified in FIG. 3 and FIG. 4 could function through direct binding and inhibition of GPX4, we tested binding of each compound to recombinant GPX4 protein in vitro by intact protein mass spectrometry. Intact mass analysis is the assessment of a protein's total molecular weight by mass spectrometry without prior digestion or fragmentation of the molecule of interest. Covalent binding of a potential inhibitor to GPX4 can be detected by a shift in the mass of the intact protein. For the intact protein analysis, we used ML162, a well-characterized GPX4 inhibitor (available from Sigma Aldrich), as a positive control. […] Briefly, compounds were incubated with recombinant GPX4 protein in vitro for 2 hours before quenching with trifluoroacetic acid (TFA) and analysis by mass spectroscopy.
To determine whether the ferroptosis-inducing compounds 6666 and 8147 could function through direct binding and inhibition of GPX4, we tested binding of each compound to recombinant GPX4 protein in vitro by intact protein mass spectrometry. Compound 8216 was used as a positive control (see FIG. 6). Briefly, 15 μL of GPX4 protein (Cayman Chemical cat #SO960203]) was incubated with 100 µM of each compound ([…]) and diluted with 25.5 μl of PBS. The incubation was performed at room temperature for 2 hours and then the reaction was quenched with 3 μL of trifluoroacetic acid. Samples were subjected to UPLC coupled to Synapt G2 mass spectrometer to evaluate if binding of the test compound to GPX4 occurs. Binding is evident by a mass shift equivalent to the mass size of the compound minus a chlorine atom plus the mass size of the GPX4 protein, as described by the manufacturer.

[3] = test system: HMOX1 expression in HT-1080 fibrosarcoma cells; test: HMOX1 induction by RT-qPCR in HT-1080 cells; assay type: cell-based; settings: for HMOX1 induction (RT-qPCR): 10 μM or 5 μM, four hours, normalized to ACTB, relative to DMSO
Method: We tested several of our ferroptosis-inducing compounds for their ability to rapidly induce HMOX1 by RT-qPCR. Briefly, HT-1080 fibrosarcoma cells were treated with either 10 µM or 5 µM of compound RSL3, 8216, 1962, 1816, or 3362 for four hours. RNA was isolated and reverse transcribed and HMOX1 expression quantified by qPCR. Each sample was normalized to an ACTB housekeeping gene control and fold change was calculated relative to a DMSO control.
We tested several of the ferroptosis-inducing compounds for their ability to rapidly induce expression of HMOX1. Briefly, HT-1080 fibrosarcoma cells were plated in 6-well dishes 24 hours prior to treatment with 5 μM of 8147, 6047, 3793, Rsl3, 6666 or 8216 with and without the addition of ferrostatin-1 to the media. Cells were harvested from the plate after 4 hours of compound treatment by adding Trizol reagent directly to the plate to lyse the cells and preserve the RNA. RNA was isolated using the Direct-zol 96-well RNA kit (Zymo cat #R2054). Subsequently purity and quantity of RNA in the samples were measured using a Nanodrop (Thermo Fisher cat #ND-ONE-W). RNA samples were normalized to 2 μg and reverse transcribed to cDNA using the Multiscribe High-Capacity Reverse Transcription kit (Thermo Fisher cat #4368814) following manufacturer's instructions. Quantitative real time PCR was carried out in triplicate using SYBR Select Master Mix (Thermo Fisher cat #4472903) following manufacturer's instructions with primers designed against HMOX1 and ActB from IDT. HMOX1 expression levels were normalized to ActB for each sample then fold change was determined against the vehicle control, DMSO.

Structure (SMILES)	GPX4 inhibitory capacity in vitro (recombinant GPX4 protein [1])	binding to recombinant GPX4 in vitro (recombinant GPX4 protein [2])	number of binding events / sites on GPX4 (mass shifts) (recombinant GPX4 protein [2])	HMOX1 induction (RT-qPCR) [3]	EC50 (recombinant GPX4 protein [1]) [nM]	mass shift of GPX4 (binding) (recombinant GPX4 protein [2]; 100 μM compound, room temperature, 2 hours, UPLC-Synapt G2)	HMOX1 upregulation and rescue by ferrostatin-1 (RT-qPCR) ([3]; 5 μM, 4 hours, with and without ferrostatin-1)
CCCCCN(C(=O)CCl)c1c(N)n(CCCC)c(=O)[nH]c1=O [Compound 1816]	do not inhibit GPX4 enzymatic activity in vitro	capable of binding GPX4	display a single mass shift	did not induce HMOX1			
O=C(CCl)N1c2ccccc2OC[C@@H]1c1ccccc1 [Compound 1962]	exhibit potent GPX4 inhibitory capacity	capable of binding GPX4	can bind GPX4 either 2, 3, or 4 times	did not lead to dose responsive induction of HMOX1	~440		
CCOc1ccc(C[C@@H]2c3cc(OCC)c(OCC)cc3CCN2C(=O)CCl)cc1OCC [Compound 3362]	do not inhibit GPX4 enzymatic activity in vitro		bind either 1, 2, or 3 times	results in induction of HMOX1			
O=C(CCl)N(Cc1ccc(F)cc1)C1CCCCC1 [Compound 8216]	exhibit potent GPX4 inhibitory capacity	capable of binding GPX4	bind either 1, 2, or 3 times	remarkably similar dose-dependent HMOX1 induction	~100	demonstrate a mass shift	upregulation of HMOX1 which was rescued by the addition of ferrostatin-1, to varying degrees
